Experimental data taken from PubChem BioAssay (NCI).
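Protocol summary: plate cells (96-well), add compound at 5 concentrations, incubate 48 h, interpolate endpoints linearly. TGI: total growth inhibition.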

Experiments:
Experiment in all cases: inhibition of tumour cell growth, NCI panel, 48 h
[1] = system: HCT-116 colon
[2] = system: HS 578T breast
[3] = system: IGROV1 ovarian
[4] = system: K-562 leukemia
[5] = system: MOLT-4 leukemia
[6] = system: NCI-H460 lung
[7] = system: OVCAR-3 ovarian
[8] = system: OVCAR-5 ovarian
[9] = system: OVCAR-8 ovarian
[10] = system: RXF 393 renal
[11] = system: SF-295 CNS
[12] = system: SK-MEL-28 melanoma
[13] = system: SK-MEL-5 melanoma
[14] = system: SNB-19 CNS
[15] = system: T-47D breast
[16] = system: U251 CNS
[17] = system: UACC-257 melanoma
[18] = system: UO-31 renal
[19] = system: NCI-H226 lung
[20] = system: OVCAR-4 ovarian

Compound | TGI [1] [µM] | TGI [2] [µM] | TGI [3] [µM] | TGI [4] [µM] | TGI [5] [µM] | TGI [6] [µM] | TGI [7] [µM] | TGI [8] [µM] | TGI [9] [µM] | TGI [10] [µM] | TGI [11] [µM] | TGI [12] [µM] | TGI [13] [µM] | TGI [14] [µM] | TGI [15] [µM] | TGI [16] [µM] | TGI [17] [µM] | TGI [18] [µM] | TGI [19] [µM] | TGI [20] [µM]
COc1ccc2c(c1)/C(=C\c1c(Cl)nc3sc(C)cn13)C(=O)N2 | 14.1 | 9.6 | 16.7 | 9.56 | 8.41 | 12.3 | 8.83 | 25.4 | 15.1 | 21.1 | 11 | 25.5 | 11.8 | 13.4 | 14.6 | 11.6 | 21 | 19 |  | 
O=C(CC(C(=O)c1ccsc1)c1ccc2c(c1)OCO2)c1ccccc1 (stereo unspecified) | > 100 | > 100 | > 100 | > 100 | > 100 | > 100 | > 100 | > 100 | > 100 | > 100 | > 100 | > 100 | > 100 |  | > 100 | > 100 | > 100 | > 100 | > 100 | > 100
CCN(CCCN(CC)C(=O)Nc1c(C)cccc1C)C(=O)Nc1c(C)cccc1C | > 100 | > 100 | > 100 | > 100 | > 100 | > 100 |  | > 100 | > 100 | > 100 | > 100 | > 100 | > 100 | > 100 | > 100 | > 100 | > 100 | > 100 | > 100 | > 100
